In patent US7595401B2, “Therapeutic compounds and their use in cancer” (Myriad Pharmaceuticals, Inc., priority 2006, dated 2009):
pIC50: −log10 of the molar value.

System: purified human Hsp90
Test: Binding Assay: fluorescence polarization with BODIPY-labeled geldanamycin
Details: BODIPY-GM 10 nM, Hsp90 30 nM
How it was run: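 Fluorescence polarization competition with BODIPY-geldanamycin (10 nM final) and human Hsp90 (30 nM final) in HEPES-KOH pH 7.3 buffer with molybdate, NP-40, DTT; 2% DMSO, overnight at room temperature. Read 485/530 nm; percent inhibition from mP normalized to DMSO controls, fluorescent-compound points excluded.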

Structure (SMILES)	% Inhibition at 5 μM Compound Concentration [%]	pIC50
Cc1ccc(CCn2c(Sc3cc4c(cc3Br)OCO4)nc3c(N)ncnc32)cc1 [Example 163, 8-(6-Bromo-benzo[1,3]dioxol-5-ylsulfanyl)-9-(2-p-tolyl-ethyl)-9H-purin-6-ylamine]	>10	–
Cc1ccc(CCn2cnc(N)c3nc(Sc4cc5c(cc4Br)OCO5)nc2-3)cc1 [Example 164, 8-(6-bromo-benzo[1,3]dioxol-5-ylsulfanyl)-3-(2-p-tolyl-ethyl)-3H-purin-6-ylamine]	0	–
Nc1ncnc2c1nc(Sc1cc3c(cc1Br)OCO3)n2CCc1cccc(C(F)(F)F)c1 [Example 165, 8-(6-Bromo-benzo[1,3]dioxol-5-ylsulfanyl)-9-[2-(3-trifluoromethyl-phenyl)-ethyl]-9H-purin-6-ylamine]	60	6.52
Nc1ncn(CCc2cccc(C(F)(F)F)c2)c2nc(Sc3cc4c(cc3Br)OCO4)nc1-2 [Example 166, 8-(6-Bromo-benzo[1,3]dioxol-5-ylsulfanyl)-3-[2-(3-trifluoromethyl-phenyl)-ethyl]-3H-purin-6-ylamine]	0	–
COc1ccc(OC)c(Sc2nc3c(N)ncnc3n2CCc2ccc3c(c2)OCO3)c1 [Example 167, 9-(2-Benzo[1,3]dioxol-5-yl-ethyl)-8-(2,5-dimethoxy-phenylsulfanyl)-9H-purin-6-ylamine]	44	< 4.60
COc1ccc(OC)c(Sc2nc3c(N)ncn(CCc4ccc5c(c4)OCO5)c-3n2)c1 [Example 168, 3-(2-benzo[1,3]dioxol-5-yl-ethyl)-8-(2,5-dimethoxy-phenylsulfanyl)-3H-purin-6-ylamine]	0	–
COc1ccc(OC)c(Sc2nc3c(N)ncnc3n2CCC2CCCCC2)c1 [Example 169, 9-(2-Cyclohexyl-ethyl)-8-(2,5-dimethoxyphenyl-sulfanyl)-9H-purin-6-ylamine]	37	6.33
COc1ccc(OC)c(Sc2nc3c(N)ncn(CCC4CCCCC4)c-3n2)c1 [Example 170, 3-(2-cyclohexyl-ethyl)-8-(2,5-dimethoxy-phenylsulfanyl)-3H-purin-6-ylamine]	3	–
Nc1ncnc2c1nc(Sc1cc3c(cc1Br)OCO3)n2CCc1ccc(-c2ccccc2)cc1 [Example 171, 9-(2-Biphenyl-4-yl-ethyl)-8-(6-bromo-benzo[1,3]dioxol-5-ylsulfanyl)-9H-purin-6-ylamine]	–	< 4.60
Nc1ncn(CCc2ccc(-c3ccccc3)cc2)c2nc(Sc3cc4c(cc3Br)OCO4)nc1-2 [Example 172, 3-(2-biphenyl-4-yl-ethyl)-8-(6-bromo-benzo[1,3]dioxol-5-ylsulfanyl)-3H-purin-6-ylamine]	>10	–
Nc1ncnc2c1nc(Sc1cc3c(cc1Br)OCO3)n2CCC1CCCCC1 [Example 173, 8-(6-Bromo-benzo[1,3]dioxol-5-ylsulfanyl)-9-(2-cyclohexyl-ethyl)-9H-purin-6-ylamine]	44	< 4.60
Nc1ncn(CCC2CCCCC2)c2nc(Sc3cc4c(cc3Br)OCO4)nc1-2 [Example 174, 8-(6-bromo-benzo[1,3]dioxol-5-ylsulfanyl)-3-(2-cyclohexyl-ethyl)-3H-purin-6-ylamine]	37	< 4.60
COc1ccc(OC)c(Sc2nc3c(N)ncnc3n2CCc2ccc(S(=O)(=O)O)cc2)c1 [Example 175, 4-{2-[6-Amino-8-(2,5-dimethoxy-phenylsulfanyl)-purin-9-yl]-ethyl}-benzenesulfonic acid]	46	4.85
COc1ccc(OC)c(Sc2nc3c(N)ncn(CCc4ccc(S(=O)(=O)O)cc4)c-3n2)c1 [Example 176, 4-{2-[6-amino-8-(2,5-dimethoxy-phenylsulfanyl)-purin-3-yl]-ethyl}-benzenesulfonic acid]	6	–
Nc1ncnc2c1nc(Sc1cc3c(cc1Br)OCO3)n2CC(O)c1ccc(Cl)cc1Cl (stereo not shown) [Example 177, 2-[6-Amino-8-(6-bromo-benzo[1,3]dioxol-5-ylsulfanyl)-purin-9-yl]-1-(2,4-dichloro-phenyl)-ethanol]	0	–
Nc1ncn(CC(O)c2ccc(Cl)cc2Cl)c2nc(Sc3cc4c(cc3Br)OCO4)nc1-2 (stereo not shown) [Example 178, 2-[6-amino-8-(6-bromo-benzo[1,3]dioxol-5-ylsulfanyl)-purin-3-yl]-1-(2,4-dichloro-phenyl)-ethanol]	9	–
COc1ccc(OC)c(Sc2nc3c(N)ncnc3n2CC(c2ccccc2)C2CCCCC2)c1 (stereo not shown) [Example 179, 9-(2-Cyclohexyl-2-phenyl-ethyl)-8-(2,5-dimethoxy-phenylsulfanyl)-9H-purin-6-ylamine]	8	–
COc1ccc(OC)c(Sc2nc3c(N)ncn(CC(c4ccccc4)C4CCCCC4)c-3n2)c1 (stereo not shown) [Example 180, 3-(2-cyclohexyl-2-phenyl-ethyl)-8-(2,5-dimethoxy-phenylsulfanyl)-3H-purin-6-ylamine]	>10	–
COc1ccc(OC)c(Sc2nc3c(N)ncnc3n2CCc2ccc(-c3ccccc3)cc2)c1 [Example 181, 9-(2-Biphenyl-4-yl-ethyl)-8-(2,5-dimethoxy-phenylsulfanyl)-9H-purin-6-ylamine]	–	< 4.60
COc1ccc(OC)c(Sc2nc3c(N)ncn(CCc4ccc(-c5ccccc5)cc4)c-3n2)c1 [Example 182, 3-(2-biphenyl-4-yl-ethyl)-8-(2,5-dimethoxy-phenylsulfanyl)-3H-purin-6-ylamine]	>10	–
COc1ccc(OC)c(Sc2nc3c(N)ncnc3n2CCc2ccccc2C(F)(F)F)c1 [Example 183, 8-(2,5-Dimethoxy-phenylsulfanyl)-9-[2-(2-trifluoromethyl-phenyl)-ethyl]-9H-purin-6-ylamine]	100	5.96
COc1ccc(OC)c(Sc2nc3c(N)ncn(CCc4ccccc4C(F)(F)F)c-3n2)c1 [Example 184, 8-(2,5-dimethoxy-phenylsulfanyl)-3-[2-(2-trifluoromethyl-phenyl)-ethyl]-3H-purin-6-ylamine]	0	–
COc1ccc(OC)c(Sc2nc3c(N)ncnc3n2CCc2ccc(N(C)C)cc2)c1 [Example 185, 8-(2,5-Dimethoxy-phenylsulfanyl)-9-[2-(4-dimethylamino-phenyl)-ethyl]-9H-purin-6-ylamine]	–	< 5.60

Further lines, results first:

% Inhibition at 5 μM Compound Concentration [%]	pIC50	Structure (SMILES)
0	–	COc1ccc(OC)c(Sc2nc3c(N)ncn(CCc4ccc(N(C)C)cc4)c-3n2)c1 [Example 186, 8-(2,5-dimethoxy-phenylsulfanyl)-3-[2-(4-dimethylamino-phenyl)-ethyl]-3H-purin-6-ylamine]
–	< 5.60	CN(C)c1ccc(CCn2c(Sc3cc4c(cc3Br)OCO4)nc3c(N)ncnc32)cc1 [Example 187, 8-(6-Bromo-benzo[1,3]dioxol-5-ylsulfanyl)-9-[2-(4-dimethylamino-phenyl)-ethyl]-9H-purin-6-ylamine]
21	–	CN(C)c1ccc(CCn2cnc(N)c3nc(Sc4cc5c(cc4Br)OCO5)nc2-3)cc1 [Example 188, 8-(6-bromo-benzo[1,3]dioxol-5-ylsulfanyl)-3-[2-(4-dimethylamino-phenyl)-ethyl]-3H-purin-6-ylamine]
–	< 5.10	CCOc1ccc(OCC)c(Sc2nc3c(N)ncnc3n2CCc2ccccc2)c1 [Example 189, 8-(2,5-Diethoxy-phenylsulfanyl)-9-phenethyl-9H-purin-6-ylamine]
8	–	CCOc1ccc(OCC)c(Sc2nc3c(N)ncn(CCc4ccccc4)c-3n2)c1 [Example 190, 8-(2,5-diethoxy-phenylsulfanyl)-3-phenethyl-3H-purin-6-ylamine]
–	< 5.10	CCOc1ccc(OCC)c(Sc2nc3c(N)ncnc3n2CCc2ccccc2Cl)c1 [Example 191, 9-[2-(2-Chloro-phenyl)-ethyl]-8-(2,5-diethoxy-phenylsulfanyl)-9H-purin-6-ylamine]
0	–	CCOc1ccc(OCC)c(Sc2nc3c(N)ncn(CCc4ccccc4Cl)c-3n2)c1 [Example 192, 3-[2-(2-chloro-phenyl)-ethyl]-8-(2,5-diethoxy-phenylsulfanyl)-3H-purin-6-ylamine]
39	6.51	COc1cc(CCn2c(Sc3cc(OC)ccc3OC)nc3c(N)ncnc32)cc(OC)c1 [Example 193, 9-[2-(3,5-dimethoxy-phenyl)-ethyl]-8-(2,5-dimethoxy-phenylsulfanyl)-9H-purin-6-ylamine]
0	–	COc1cc(CCn2cnc(N)c3nc(Sc4cc(OC)ccc4OC)nc2-3)cc(OC)c1 [Example 194, 3-[2-(3,5-dimethoxy-phenyl)-ethyl]-8-(2,5-dimethoxy-phenylsulfanyl)-3H-purin-6-ylamine]
80	7.10	COc1cc(CCn2c(Sc3cc4c(cc3Br)OCO4)nc3c(N)ncnc32)cc(OC)c1 [Example 195, 8-(6-Bromo-benzo[1,3]dioxol-5-ylsulfanyl)-9-[2-(3,5-dimethoxy-phenyl)-ethyl]-9H-purin-6-ylamine]
10	–	COc1cc(CCn2cnc(N)c3nc(Sc4cc5c(cc4Br)OCO5)nc2-3)cc(OC)c1 [Example 196, 8-(6-Bromo-benzo[1,3]dioxol-5-ylsulfanyl)-3-[2-(3,5-dimethoxy-phenyl)-ethyl]-3H-purin-6-ylamine]
–	6.77	COc1ccc(OC)c(Sc2nc3c(N)ncnc3n2CCc2ccsc2)c1 [Example 197, 8-(2,5-Dimethoxy-phenylsulfanyl)-9-(2-thiophen-3-yl-ethyl)-9H-purin-6-ylamine]
18	–	COc1ccc(OC)c(Sc2nc3c(N)ncn(CCc4ccsc4)c-3n2)c1 [Example 198, 8-(2,5-dimethoxy-phenylsulfanyl)-3-(2-thiophen-3-yl-ethyl)-3H-purin-6-ylamine]
–	6.96	COc1ccc(OC)c(Sc2nc3c(N)ncnc3n2CCc2cccs2)c1 [Example 199]
